Measurements taken from PMC11637378, “Optogenetic screening of MCT1 activity implicates a cluster of non-steroidal anti-inflammatory drugs (NSAIDs) as inhibitors of lactate transport” (PLOS ONE, 2024).
Where a name gives a salt, the structure may show the parent alone.

Tested on: parent strain (SAWy518)

Question: Which results are given for `CC(C)(C)C(=O)C(Oc1ccc(Cl)cc1)n1cncn1` (stereo not shown) [TRIADIMEFON]?
Answer: Offscreen_18hr: 0.0626; Offscreen_24hr: 0.0684; Offscreen_42hr: 0.2136

Question: What does the source list for `CO[C@H]1C[C@@H]2CC[C@@H](C)[C@@](O)(O2)C(=O)C(=O)N2CCCC[C@H]2C(=O)O[C@H]([C@H](C)C[C@@H]2CC[C@@H](O)[C@H](OC)C2)CC(=O)[C@H](C)/C=C(\C)[C@@H](O)[C@@H](OC)C(=O)[C@H](C)C[C@H](C)/C=C/C=C/C=C/1C` [SIROLIMUS]?
Answer: Offscreen_18hr: 0.341; Offscreen_24hr: 0.5452; Offscreen_42hr: 0.8609

Question: Which results are given for `CCCCCCCCc1ccc(CCC(N)(CO)CO)cc1.Cl` [Fingolimod (FTY720)]?
Answer: Offscreen_18hr: 0.0535; Offscreen_24hr: 0.0624; Offscreen_42hr: 0.7799

Question: Which results are given for Erythrosine?
Answer: OffScreen_percentage: 100.818 percentage; Offscreen_18hr: 0.8136; Offscreen_24hr: 0.8985; Offscreen_42hr: 0.9466; Read_percentage: 100.818 percentage

Question: For `CC[N+](CC)(CC)CCOc1ccc(/C=C/c2ccccc2)cc1` [MG 624], which Offscreen_18hr is on record?
Answer: The Offscreen_18hr was 0.5585.

Question: What about the Offscreen_24hr of the same compound?
Answer: The Offscreen_24hr was 0.7684.

Question: And the Offscreen_42hr?
Answer: The Offscreen_42hr was 0.9127.

Question: What does the source list for `CCCCc1oc2ccccc2c1C(=O)c1cc(I)c(OCCN(CC)CC)c(I)c1` [Amiodarone hydrochloride]?
Answer: Offscreen_18hr: 0.3754; Offscreen_24hr: 0.6492; Offscreen_42hr: 0.9258

Question: Which results are given for `Oc1c(Cl)cc(Cl)c2cccnc12` [Capitrol]?
Answer: Offscreen_18hr: 0.0472; Offscreen_24hr: 0.0467; Offscreen_42hr: 0.0526

Question: With `O=C(/C=C/c1ccccc1)c1ccc(O)cc1` [4'-HYDROXYCHALCONE] as the compound, how does the Offscreen_18hr read?
Answer: The Offscreen_18hr was 0.7341.

Question: What about the Offscreen_24hr of the same compound?
Answer: Its Offscreen_24hr is 0.8731.

Question: And the Offscreen_42hr?
Answer: Its Offscreen_42hr is 0.9266.

Question: Which results are given for `CO[C@H]1O[C@@H]2O[C@@]3(C)CC[C@H]4[C@H](C)CC[C@@H]([C@H]1C)[C@@]24OO3` [Artemether]?
Answer: Offscreen_18hr: 0.3535; Offscreen_24hr: 0.4688; Offscreen_42hr: 0.7035

Question: How did the Offscreen_18hr turn out when `C[C@@H]1CC[C@H]2[C@@H](C)C(=O)O[C@@H]3O[C@@]4(C)CC[C@@H]1[C@]32OO4` [ARTEMISININ] was run?
Answer: Its Offscreen_18hr is 0.4969.

Question: What about the Offscreen_24hr of the same compound?
Answer: Its Offscreen_24hr is 0.7016.

Question: What about the Offscreen_42hr of the same compound?
Answer: Its Offscreen_42hr is 0.8396.

Question: For `O=c1c2ccccc2[se]n1-c1ccccc1` [EBSELEN], which Offscreen_18hr is on record?
Answer: The Offscreen_18hr was 0.0405.

Question: What about the Offscreen_24hr of the same compound?
Answer: The Offscreen_24hr was 0.0408.

Question: And the Offscreen_42hr?
Answer: The Offscreen_42hr was 0.0412.

Question: How did the Offscreen_18hr turn out when `CC(=O)[C@]1(O)Cc2c(O)c3c(c(O)c2[C@@H](O[C@H]2C[C@H](N)[C@H](O)[C@H](C)O2)C1)C(=O)c1ccccc1C3=O` [Idarubicin HCl] was run?
Answer: Its Offscreen_18hr is 0.1605.

Question: And the Offscreen_24hr?
Answer: The Offscreen_24hr was 0.1891.

Question: And the Offscreen_42hr?
Answer: Its Offscreen_42hr is 0.402.

Question: Which results are given for `O=C([O-])c1ccccc1-c1c2cc(I)c(=O)c(I)c-2oc2c(I)c([O-])c(I)cc12.[Na+].[Na+]` [ERYTHROSINE SODIUM]?
Answer: Offscreen_18hr: 0.8136; Offscreen_24hr: 0.8985; Offscreen_42hr: 0.9466

Question: Which results are given for `COc1ccc2c(c1)CC[C@@H]1[C@@H]2CC[C@]2(C)[C@H](NCCCCCCN3C(=O)C=CC3=O)CC[C@@H]12` [U 73122]?
Answer: Offscreen_18hr: 0.5917; Offscreen_24hr: 0.8296; Offscreen_42hr: 0.9704

Question: Which Offscreen_18hr does the source give for `CCN(CC)C(=S)SSC(=S)N(CC)CC` [Disulfiram] here?
Answer: Its Offscreen_18hr is 0.0526.

Question: What about the Offscreen_24hr of the same compound?
Answer: The Offscreen_24hr was 0.0614.

Question: And the Offscreen_42hr?
Answer: Its Offscreen_42hr is 0.7775.

Question: How did the Offscreen_18hr turn out when `C=CCOC(Cn1ccnc1)c1ccc(Cl)cc1Cl.O=S(=O)(O)O` (stereo not shown) [ENILCONAZOLE SULFATE] was run?
Answer: The Offscreen_18hr was 0.81.

Question: And the Offscreen_24hr?
Answer: The Offscreen_24hr was 0.8908.

Question: What about the Offscreen_42hr of the same compound?
Answer: The Offscreen_42hr was 0.9485.

Question: With `O=C(O)/C=C/C=C/c1ccccc1` [JUAREZIC ACID] as the compound, how does the Offscreen_18hr read?
Answer: Its Offscreen_18hr is 0.6813.

Question: And the Offscreen_24hr?
Answer: Its Offscreen_24hr is 0.7831.

Question: What about the Offscreen_42hr of the same compound?
Answer: The Offscreen_42hr was 0.827.

Question: Which results are given for `CS(=O)(=O)c1ccc(C2=C(c3ccccc3)C(=O)OC2)cc1` [Rofecoxib, reference compound]?
Answer: OffScreen_percentage: 103.916 percentage; Offscreen_18hr: 0.8386; Offscreen_24hr: 0.9205; Offscreen_42hr: 0.975; Read_percentage: 103.916

Question: For `Oc1ccc(Nc2nc(-c3ccc(Cl)cc3)cs2)cc1` [SKI II], which Offscreen_18hr is on record?
Answer: The Offscreen_18hr was 0.4105.

Question: What about the Offscreen_24hr of the same compound?
Answer: Its Offscreen_24hr is 0.6287.

Question: What about the Offscreen_42hr of the same compound?
Answer: The Offscreen_42hr was 0.8658.

Question: How did the Offscreen_18hr turn out when `CCN(CC)CCOc1ccc(C(=C(Cl)c2ccccc2)c2ccccc2)cc1` [Clomifene citrate] was run?
Answer: The Offscreen_18hr was 0.6687.

Question: What about the Offscreen_24hr of the same compound?
Answer: Its Offscreen_24hr is 0.875.

Question: What about the Offscreen_42hr of the same compound?
Answer: The Offscreen_42hr was 0.9713.

Question: Which Offscreen_18hr does the source give for `COc1ccc(-c2coc3cc(OC(C)=O)cc(OC(C)=O)c3c2=O)cc1` [BIOCHANIN A DIACETATE] here?
Answer: The Offscreen_18hr was 0.8079.

Question: And the Offscreen_24hr?
Answer: Its Offscreen_24hr is 0.8835.

Question: And the Offscreen_42hr?
Answer: Its Offscreen_42hr is 0.9447.

Question: How did the Offscreen_18hr turn out when `Cc1ccc(S(=O)(=O)/C=C/C#N)cc1` [BAY 11-7082 (BAY 11-7821)] was run?
Answer: Its Offscreen_18hr is 0.151.

Question: What about the Offscreen_24hr of the same compound?
Answer: Its Offscreen_24hr is 0.3413.

Question: And the Offscreen_42hr?
Answer: Its Offscreen_42hr is 0.9249.

Question: With `O=C(/C=C/c1ccc(O)c(O)c1)OCCc1ccccc1` [PHENETHYL CAFFEATE (CAPE)] as the compound, how does the Offscreen_18hr read?
Answer: The Offscreen_18hr was 0.3307.

Question: And the Offscreen_24hr?
Answer: Its Offscreen_24hr is 0.5133.

Question: And the Offscreen_42hr?
Answer: Its Offscreen_42hr is 0.8223.

Question: Which results are given for `Br.Br.N=C(N)SCCN` [AMINOETHYLISOTHIOUREA DIHYDROBROMIDE]?
Answer: Offscreen_18hr: 0.0502; Offscreen_24hr: 0.0525; Offscreen_42hr: 0.1802

Question: Which results are given for `Oc1ccc2ccccc2c1SSc1c(O)ccc2ccccc12` [IPA-3]?
Answer: Offscreen_18hr: 0.0457; Offscreen_24hr: 0.0481; Offscreen_42hr: 0.1263

Question: Which Offscreen_18hr does the source give for `Oc1cc(Cl)ccc1Oc1ccc(Cl)cc1Cl` [Triclosan] here?
Answer: The Offscreen_18hr was 0.1779.

Question: And the Offscreen_24hr?
Answer: Its Offscreen_24hr is 0.3017.

Question: What about the Offscreen_42hr of the same compound?
Answer: The Offscreen_42hr was 0.8343.

Question: With `CN(C/C=C/C#CC(C)(C)C)Cc1cccc2ccccc12` [Terbinafine hydrochloride] as the compound, how does the Offscreen_18hr read?
Answer: Its Offscreen_18hr is 0.3316.

Question: And the Offscreen_24hr?
Answer: Its Offscreen_24hr is 0.5468.

Question: And the Offscreen_42hr?
Answer: Its Offscreen_42hr is 0.9146.

Question: Which results are given for `CN(C)c1ccc2nc3ccc(=[N+](C)C)cc-3sc2c1.O.O.O.[Cl-]` [Methylene Blue]?
Answer: Offscreen_18hr: 0.8664; Offscreen_24hr: 0.9565; Offscreen_42hr: 1.0182

Question: Which Offtarget does the source give for `CC(C)NNC(=O)c1ccncc1.O=P(O)(O)O` [Iproniazid phosphate, reference compound] here?
Answer: The Offtarget was “NO”.

Question: And the Offtarget_sub?
Answer: Its Offtarget_sub is 0.4143.

Question: How did the Offscreen_18hr turn out when `COc1cccc2c1C(=O)c1c(O)c3c(c(O)c1C2=O)C[C@@](O)(C(=O)CO)C[C@H]3O[C@H]1C[C@H](N)[C@H](O)[C@H](C)O1.Cl` [Doxorubicin (Adriamycin)] was run?
Answer: Its Offscreen_18hr is 0.4346.

Question: What about the Offscreen_24hr of the same compound?
Answer: The Offscreen_24hr was 0.6005.

Question: And the Offscreen_42hr?
Answer: The Offscreen_42hr was 0.8771.

Question: How did the Offscreen_18hr turn out when `CO[C@H]1C[C@@H]2CC[C@@H](C)[C@@](O)(O2)C(=O)C(=O)N2CCCC[C@H]2C(=O)O[C@H]([C@H](C)C[C@@H]2CC[C@@H](OC(=O)C(C)(CO)CO)[C@H](OC)C2)CC(=O)[C@H](C)/C=C(\C)[C@@H](O)[C@@H](OC)C(=O)[C@H](C)C[C@H](C)/C=C/C=C/C=C/1C` [Temsirolimus] was run?
Answer: The Offscreen_18hr was 0.0544.

Question: And the Offscreen_24hr?
Answer: The Offscreen_24hr was 0.0562.

Question: What about the Offscreen_42hr of the same compound?
Answer: Its Offscreen_42hr is 0.0968.

Question: Which results are given for `NS(=O)(=O)c1ccc(-n2nc(C(F)(F)F)cc2-c2ccc(Cl)cc2)cc1` [SC-236, reference compound]?
Answer: Offtarget: NO; Offtarget_sub: 0.2541

Question: What does the source list for `COc1ncc(-c2ccc3nccc(-c4ccnnc4)c3c2)cc1NS(=O)(=O)c1ccc(F)cc1F` [GSK2126458 (GSK458)]?
Answer: Offscreen_18hr: 0.433; Offscreen_24hr: 0.6688; Offscreen_42hr: 0.9364

Question: Which results are given for `Oc1ccc(Cl)cc1Cc1cc(Cl)ccc1O` [DICHLOROPHEN]?
Answer: Offscreen_18hr: 0.5869; Offscreen_24hr: 0.7921; Offscreen_42hr: 0.8823

Question: How did the Offtarget turn out when `CCCCCCC(=O)OC1CC(C)(C)NC(C)(C)C1.Cl` [TMPH hydrochloride, reference compound] was run?
Answer: Its Offtarget is “NO”.

Question: And the Offtarget_sub?
Answer: Its Offtarget_sub is 0.4142.
